In patent publication US6346514B1, “Pharmaceutical lysine-containing polypeptide compositions and methods of use thereof” (priority 1991, dated 2002):

Columns and labels:
[1] = system: methicillin resistant Staphylococcus aureus; conditions: methicillin-resistant S. aureus (MR); s.c. in the hour subsequent to inoculation; previous studies; cited from earlier work
[2] = system: methicillin-resistant S. aureus; conditions: S. aureus (MR); s.c. in the hour subsequent to inoculation; cited from earlier work
[3] = system: methicillin resistant Staphylococcus aureus; assay: Survival of mice inoculated with 10xLD50 S. aureus, EK pretreatment with or without Ampicillin; assay type: in vivo
Experimental: Animals were inoculated intraperitoneally with 10×LD50 of a Staphylococcus aureus suspended in brain-heart infusion broth containing 5 percent mucin. […] If significant prevention of mortality (>50 percent survival) was observed, the minimum effective dose (MED) was determined.
Two control experiments were initially conducted. […] No antibiotic was administered to this group. The number of survivors at 72 hours was determined. […] The number of survivors at 72 hours was recorded.
Survival statistics were determined over the periods of 12, 24, 36, 48, and 72 hours. […] Survival statistics were determined over the periods 12, 23,36, 48, and 72 hours. FIG. 1 illustrates the experimental protocol.

microbial growth = assay: Bacterial culture experiments with EK; assay type: cell-based; conditions: concentrations exceeding 1000 times the administered dose to animals
[4] = 12 HOURS after inoculation, EK 10 mcg/kg
[5] = 12 HOURS after inoculation, EK 100 mcg/kg
[6] = 12 HOURS after inoculation, EK 1000 mcg/kg
[7] = 24 HOURS after inoculation, EK 10 mcg/kg
[8] = 24 HOURS after inoculation, EK 100 mcg/kg
[9] = 24 HOURS after inoculation, EK 1000 mcg/kg
[10] = 36 HOURS after inoculation, EK 10 mcg/kg
[11] = 36 HOURS after inoculation, EK 100 mcg/kg
[12] = 36 HOURS after inoculation, EK 1000 mcg/kg
[13] = 48 HOURS after inoculation, EK 10 mcg/kg
[14] = 48 HOURS after inoculation, EK 100 mcg/kg
[15] = 48 HOURS after inoculation, EK 1000 mcg/kg
[16] = 72 HOURS after inoculation, EK 10 mcg/kg
[17] = 72 HOURS after inoculation, EK 100 mcg/kg
[18] = 72 HOURS after inoculation, EK 1000 mcg/kg

Question: For `CC1(C)S[C@@H]2[C@H](NC(=O)[C@H](N)c3ccccc3)C(=O)N2[C@H]1C(=O)O` [Amp, Ampicillin], which “MED (minimum effective dose)” value [1] is on record?
Answer: greater than 100 mg/kg

Question: What about the “MED (minimum effective dose)” value [2] of the same compound?
Answer: greater than 100 mg/kg

Question: With Glu-Lys [EK] as the compound, how does the Deaths [3, 4] read?
Answer: 0

Question: What about the Survival [3, 4] of the same compound?
Answer: 100.00%

Question: What about the Survivors [3, 4] of the same compound?
Answer: 18

Question: And the Deaths [3, 5]?
Answer: 2

Question: And the Survival [3, 5]?
Answer: 88.89%

Question: What about the Survivors [3, 5] of the same compound?
Answer: 16

Question: What about the Deaths [3, 6] of the same compound?
Answer: 1

Question: What about the Survival [3, 6] of the same compound?
Answer: 94.44%

Question: What about the Survivors [3, 6] of the same compound?
Answer: 17

Question: And the Deaths [3, 7]?
Answer: 5

Question: And the Survival [3, 7]?
Answer: 72.22%

Question: And the Survivors [3, 7]?
Answer: 13

Question: And the Deaths [3, 8]?
Answer: 5

Question: And the Survival [3, 8]?
Answer: 72.22%

Question: And the Survivors [3, 8]?
Answer: 13

Question: What about the Deaths [3, 9] of the same compound?
Answer: 1

Question: And the Survival [3, 9]?
Answer: 94.44%

Question: And the Survivors [3, 9]?
Answer: 17

Question: What about the Deaths [3, 10] of the same compound?
Answer: 9

Question: And the Survival [3, 10]?
Answer: 50.00%

Question: What about the Survivors [3, 10] of the same compound?
Answer: 9

Question: And the Deaths [3, 11]?
Answer: 9

Question: What about the Survival [3, 11] of the same compound?
Answer: 50.00%

Question: What about the Survivors [3, 11] of the same compound?
Answer: 9

Question: And the Deaths [3, 12]?
Answer: 4

Question: And the Survival [3, 12]?
Answer: 77.78%

Question: And the Survivors [3, 12]?
Answer: 14

Question: What about the Deaths [3, 13] of the same compound?
Answer: 13

Question: What about the Survivors [3, 13] of the same compound?
Answer: 5

Question: And the Deaths [3, 14]?
Answer: 13

Question: And the Survivors [3, 14]?
Answer: 5

Question: What about the Deaths [3, 15] of the same compound?
Answer: 10

Question: And the Survival [3, 15]?
Answer: 44.44%

Question: And the Survivors [3, 15]?
Answer: 8

Question: What about the Deaths [3, 16] of the same compound?
Answer: 13

Question: What about the Survivors [3, 16] of the same compound?
Answer: 5

Question: What about the Deaths [3, 17] of the same compound?
Answer: 13

Question: What about the Survivors [3, 17] of the same compound?
Answer: 5

Question: What about the Deaths [3, 18] of the same compound?
Answer: 11

Question: And the Survival [3, 18]?
Answer: 38.89%

Question: What about the Survivors [3, 18] of the same compound?
Answer: 7

Question: And the “survival after normally lethal i.p. dose of S. aureus” value ([3]; EK pretreatment)?
Answer: dramatic improvement in survival

Question: And the “Survival” value ([3]; at 36 hours, across EK dose groups)?
Answer: ≤ 78%

Question: And the “Survival” value ([3]; by 72 hours, across EK dose groups)?
Answer: at least 27%

Question: What about the “activity on microbial growth” value (microbial growth) of the same compound?
Answer: no inhibitory nor suppressive activity
